According to ChEMBL document CHEMBL5724806, “Unraveling interindividual differences and functional consequences of gut microbial metabolism of immunosuppressants” (2024):

How the values were obtained:
Format in all cases: ADME
[1] = (§1) The drug is tested on the gut metagenome community of A-02 with ENA study accession number: PRJEB31790 for biotransformation under microaerobic condition. The drug concentrations were measured over 7 timepoints collected between 0 and 12 hours of incubation by liquid-chromatography-coupled mass spectrometry (LC–MS); set-up: dose 5 uM, timepoint 0, 0.75, 1.5, 3, 6, 9, 12 hours; details: 5 µM
[2] = The drug is tested on Bacteroides vulgatus strain: DSM1447 for biotransformation under anaerobic condition. The drug concentrations were measured over 6 timepoints collected between 0 and 12 hours of incubation by liquid-chromatography-coupled mass spectrometry (LC–MS); set-up: dose 5 uM, timepoint 0, 1.5, 3, 6, 9, 12 hours; details: phocaeicola vulgatus, 5 µM
[3] = The drug is tested on Lactobacillus fermentum strain: DSM20052 for biotransformation under anaerobic condition. The drug concentrations were measured over 6 timepoints collected between 0 and 12 hours of incubation by liquid-chromatography-coupled mass spectrometry (LC–MS); set-up: dose 5 uM, timepoint 0, 1.5, 3, 6, 9, 12 hours; details: limosilactobacillus fermentum, 5 µM
[4] = The drug is tested on Gemella haemolysans strain: DSM107751 for biotransformation under anaerobic condition. The drug concentrations were measured over 6 timepoints collected between 0 and 12 hours of incubation by liquid-chromatography-coupled mass spectrometry (LC–MS); set-up: dose 5 uM, timepoint 0, 1.5, 3, 6, 9, 12 hours; details: 5 µM
[5] = as §1, with “A-03” for “A-02”; set-up: dose 5 uM, timepoint 0, 0.75, 1.5, 3, 6, 9, 12 hours; details: 5 µM
[6] = as §1, with “A-04” for “A-02”, “anaerobic” for “microaerobic”; set-up: dose 5 uM, timepoint 0, 0.75, 1.5, 3, 6, 9, 12 hours; details: 5 µM
[7] = The drug is tested on Clostridium scindens strain: DSM5676 for biotransformation under anaerobic condition. The drug concentrations were measured over 6 timepoints collected between 0 and 12 hours of incubation by liquid-chromatography-coupled mass spectrometry (LC–MS); set-up: dose 5 uM, timepoint 0, 1.5, 3, 6, 9, 12 hours; details: 5 µM
[8] = The drug is tested on Clostridium ramosum strain: DSM1402 for biotransformation under anaerobic condition. The drug concentrations were measured over 6 timepoints collected between 0 and 12 hours of incubation by liquid-chromatography-coupled mass spectrometry (LC–MS); set-up: dose 5 uM, timepoint 0, 1.5, 3, 6, 9, 12 hours; details: thomasclavelia ramosa, 5 µM
[9] = The drug is tested on Lactobacillus reuteri strain: DSM20016 for biotransformation under microaerobic condition. The drug concentrations were measured over 6 timepoints collected between 0 and 12 hours of incubation by liquid-chromatography-coupled mass spectrometry (LC–MS); set-up: dose 5 uM, timepoint 0, 1.5, 3, 6, 9, 12 hours; details: limosilactobacillus reuteri, 5 µM
[10] = as §1, with “A-01” for “A-02”, “anaerobic” for “microaerobic”; set-up: dose 5 uM, timepoint 0, 0.75, 1.5, 3, 6, 9, 12 hours; details: 5 µM
[11] = as §1, with “P-02” for “A-02”, “anaerobic” for “microaerobic”; set-up: dose 5 uM, timepoint 0, 0.75, 1.5, 3, 6, 9, 12 hours; details: 5 µM
[12] = The drug is tested on Alloscardovia omnicolens strain: DSM21503 for biotransformation under microaerobic condition. The drug concentrations were measured over 6 timepoints collected between 0 and 12 hours of incubation by liquid-chromatography-coupled mass spectrometry (LC–MS); set-up: dose 5 uM, timepoint 0, 1.5, 3, 6, 9, 12 hours; details: 5 µM
[13] = as §1, with “P-01” for “A-02”, “anaerobic” for “microaerobic”; set-up: dose 5 uM, timepoint 0, 0.75, 1.5, 3, 6, 9, 12 hours; details: 5 µM
[14] = The drug is tested on Streptococcus anginosus strain: DSM20563 for biotransformation under microaerobic condition. The drug concentrations were measured over 6 timepoints collected between 0 and 12 hours of incubation by liquid-chromatography-coupled mass spectrometry (LC–MS); set-up: dose 5 uM, timepoint 0, 1.5, 3, 6, 9, 12 hours; details: 5 µM
[15] = The drug is tested on Gemella morbillorum strain: DSM20572 for biotransformation under microaerobic condition. The drug concentrations were measured over 6 timepoints collected between 0 and 12 hours of incubation by liquid-chromatography-coupled mass spectrometry (LC–MS); set-up: dose 5 uM, timepoint 0, 1.5, 3, 6, 9, 12 hours; details: 5 µM
[16] = as §1, with “T-03” for “A-02”; set-up: dose 5 uM, timepoint 0, 0.75, 1.5, 3, 6, 9, 12 hours; details: 5 µM
[17] = The drug is tested on Bacteroides thetaiotaomicron strain: DSM2079 for biotransformation under anaerobic condition. The drug concentrations were measured over 6 timepoints collected between 0 and 12 hours of incubation by liquid-chromatography-coupled mass spectrometry (LC–MS); set-up: dose 5 uM, timepoint 0, 1.5, 3, 6, 9, 12 hours; details: 5 µM
[18] = as §1, with “T-02” for “A-02”, “anaerobic” for “microaerobic”; set-up: dose 5 uM, timepoint 0, 0.75, 1.5, 3, 6, 9, 12 hours; details: 5 µM
[19] = The drug is tested on Lactobacillus reuteri strain: DSM20016 for biotransformation under anaerobic condition. The drug concentrations were measured over 6 timepoints collected between 0 and 12 hours of incubation by liquid-chromatography-coupled mass spectrometry (LC–MS); set-up: dose 5 uM, timepoint 0, 1.5, 3, 6, 9, 12 hours; details: limosilactobacillus reuteri, 5 µM
[20] = The drug is tested on Escherichia coli strain: DSM27469 for biotransformation under anaerobic condition. The drug concentrations were measured over 6 timepoints collected between 0 and 12 hours of incubation by liquid-chromatography-coupled mass spectrometry (LC–MS); set-up: dose 5 uM, timepoint 0, 1.5, 3, 6, 9, 12 hours; details: 5 µM
[21] = The drug is tested on Alloscardovia omnicolens strain: DSM21503 for biotransformation under anaerobic condition. The drug concentrations were measured over 6 timepoints collected between 0 and 12 hours of incubation by liquid-chromatography-coupled mass spectrometry (LC–MS); set-up: dose 5 uM, timepoint 0, 1.5, 3, 6, 9, 12 hours; details: 5 µM
[22] = The drug is tested on Streptococcus sanguinis strain: DSM20567 for biotransformation under microaerobic condition. The drug concentrations were measured over 6 timepoints collected between 0 and 12 hours of incubation by liquid-chromatography-coupled mass spectrometry (LC–MS); set-up: dose 5 uM, timepoint 0, 1.5, 3, 6, 9, 12 hours; details: 5 µM
[23] = as §1, with “P-03” for “A-02”, “anaerobic” for “microaerobic”; set-up: dose 5 uM, timepoint 0, 0.75, 1.5, 3, 6, 9, 12 hours; details: 5 µM
[24] = as §1, with “P-04” for “A-02”; set-up: dose 5 uM, timepoint 0, 0.75, 1.5, 3, 6, 9, 12 hours; details: 5 µM
[25] = as §1, with “A-01” for “A-02”; set-up: dose 5 uM, timepoint 0, 0.75, 1.5, 3, 6, 9, 12 hours; details: 5 µM
[26] = The drug is tested on Akkermansia muciniphila strain: DSM22959 for biotransformation under anaerobic condition. The drug concentrations were measured over 6 timepoints collected between 0 and 12 hours of incubation by liquid-chromatography-coupled mass spectrometry (LC–MS); set-up: dose 5 uM, timepoint 0, 1.5, 3, 6, 9, 12 hours; details: 5 µM
[27] = The drug is tested on Lactobacillus gasseri strain: DSM20243 for biotransformation under anaerobic condition. The drug concentrations were measured over 6 timepoints collected between 0 and 12 hours of incubation by liquid-chromatography-coupled mass spectrometry (LC–MS); set-up: dose 5 uM, timepoint 0, 1.5, 3, 6, 9, 12 hours; details: 5 µM
[28] = as §1, with “A-10” for “A-02”, “anaerobic” for “microaerobic”; set-up: dose 5 uM, timepoint 0, 0.75, 1.5, 3, 6, 9, 12 hours; details: 5 µM
[29] = The drug is tested on Lactobacillus paracasei strain: ATCC27092 for biotransformation under anaerobic condition. The drug concentrations were measured over 6 timepoints collected between 0 and 12 hours of incubation by liquid-chromatography-coupled mass spectrometry (LC–MS); set-up: dose 5 uM, timepoint 0, 1.5, 3, 6, 9, 12 hours; details: lacticaseibacillus paracasei, 5 µM
[30] = The drug is tested on Lactobacillus ruminis strain: ATCC25644 for biotransformation under anaerobic condition. The drug concentrations were measured over 6 timepoints collected between 0 and 12 hours of incubation by liquid-chromatography-coupled mass spectrometry (LC–MS); set-up: dose 5 uM, timepoint 0, 1.5, 3, 6, 9, 12 hours; details: ligilactobacillus ruminis, 5 µM

Bacterial Biotransformation [1]	Bacterial Biotransformation [2]	Bacterial Biotransformation [3]	Bacterial Biotransformation [5]	Bacterial Biotransformation [6]	Bacterial Biotransformation [9]	Bacterial Biotransformation [10]	Bacterial Biotransformation [11]	Bacterial Biotransformation [12]	Bacterial Biotransformation [13]	Bacterial Biotransformation [14]	Bacterial Biotransformation [15]	Bacterial Biotransformation [16]	Bacterial Biotransformation [17]	Bacterial Biotransformation [18]	Bacterial Biotransformation [19]	Bacterial Biotransformation [20]	Bacterial Biotransformation [21]	Bacterial Biotransformation [22]	Compound	Bacterial Biotransformation [4]	also measured
Compound NOT metabolized	Compound NOT metabolized	Compound metabolized	Compound NOT metabolized	Compound NOT metabolized	Compound NOT metabolized	Compound NOT metabolized	Compound NOT metabolized	Compound NOT metabolized	Compound NOT metabolized	Compound NOT metabolized	Compound NOT metabolized	Compound NOT metabolized	Compound NOT metabolized	Compound NOT metabolized	Compound NOT metabolized	Compound NOT metabolized	Compound NOT metabolized	Compound NOT metabolized	CCOc1nc2cccc(C(=O)O)c2n1Cc1ccc(-c2ccccc2-c2nnn[nH]2)cc1	Compound NOT metabolized	Bacterial Biotransformation [7]: Compound NOT metabolized; Bacterial Biotransformation [8]: Compound NOT metabolized; Bacterial Biotransformation [23]: Compound NOT metabolized; Bacterial Biotransformation [24]: Compound NOT metabolized; Bacterial Biotransformation [25]: Compound NOT metabolized; Bacterial Biotransformation [26]: Compound NOT metabolized; Bacterial Biotransformation [27]: Compound NOT metabolized; Bacterial Biotransformation [28]: Compound NOT metabolized; Bacterial Biotransformation [29]: Compound NOT metabolized; Bacterial Biotransformation [30]: Compound NOT metabolized
Compound NOT metabolized	Compound NOT metabolized	Compound NOT metabolized	Compound NOT metabolized	Compound NOT metabolized	Compound NOT metabolized	Compound NOT metabolized	Compound NOT metabolized	Compound NOT metabolized	Compound NOT metabolized	Compound NOT metabolized	Compound NOT metabolized	Compound NOT metabolized	Compound NOT metabolized	Compound NOT metabolized	Compound NOT metabolized	Compound NOT metabolized	Compound NOT metabolized	Compound NOT metabolized	C[C@@H](NCCCc1cccc(C(F)(F)F)c1)c1cccc2ccccc12	Compound NOT metabolized	Bacterial Biotransformation [7]: Compound NOT metabolized; Bacterial Biotransformation [8]: Compound NOT metabolized; Bacterial Biotransformation [23]: Compound NOT metabolized; Bacterial Biotransformation [24]: Compound NOT metabolized; Bacterial Biotransformation [25]: Compound NOT metabolized; Bacterial Biotransformation [26]: Compound NOT metabolized; Bacterial Biotransformation [27]: Compound NOT metabolized; Bacterial Biotransformation [28]: Compound NOT metabolized; Bacterial Biotransformation [29]: Compound NOT metabolized; Bacterial Biotransformation [30]: Compound NOT metabolized

Compound	Bacterial Biotransformation [1]	Bacterial Biotransformation [2]	Bacterial Biotransformation [3]	Bacterial Biotransformation [5]	Bacterial Biotransformation [6]	Bacterial Biotransformation [9]	Bacterial Biotransformation [10]	Bacterial Biotransformation [11]	Bacterial Biotransformation [12]	Bacterial Biotransformation [13]	Bacterial Biotransformation [14]	Bacterial Biotransformation [15]	Bacterial Biotransformation [16]	Bacterial Biotransformation [17]	Bacterial Biotransformation [18]	Bacterial Biotransformation [19]	Bacterial Biotransformation [20]	Bacterial Biotransformation [21]	Bacterial Biotransformation [22]	Bacterial Biotransformation [4]	also measured
CCOC(=O)C1=C(COCCN)NC(C)=C(C(=O)OC)C1c1ccccc1Cl (stereo not drawn) [AMLODIPINE]	Compound metabolized	Compound NOT metabolized	Compound NOT metabolized	Compound NOT metabolized	Compound NOT metabolized	Compound NOT metabolized	Compound NOT metabolized	Compound NOT metabolized	Compound NOT metabolized	Compound NOT metabolized	Compound metabolized	Compound NOT metabolized	Compound NOT metabolized	Compound NOT metabolized	Compound NOT metabolized	Compound NOT metabolized	Compound NOT metabolized	Compound NOT metabolized	Compound NOT metabolized	Compound NOT metabolized	Bacterial Biotransformation [23]: Compound NOT metabolized; Bacterial Biotransformation [24]: Compound NOT metabolized; Bacterial Biotransformation [25]: Compound NOT metabolized; Bacterial Biotransformation [26]: Compound NOT metabolized; Bacterial Biotransformation [27]: Compound NOT metabolized; Bacterial Biotransformation [28]: Compound NOT metabolized; Bacterial Biotransformation [29]: Compound NOT metabolized; Bacterial Biotransformation [30]: Compound NOT metabolized
